Laboratory results: PubChem BioAssay (NCI)
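Method: 48-hour compound exposure of cells in 96-well plates, five concentrations, linear interpolation of endpoints. At the TGI there is no net growth.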

Columns and labels:
Experiment in all cases: inhibition of tumour cell growth, NCI panel, 48 h
TK-10 renal = test system: TK-10 renal
SF-539 CNS = test system: SF-539 CNS
MOLT-4 leukemia = test system: MOLT-4 leukemia
SF-295 CNS = test system: SF-295 CNS
MDA-N = test system: MDA-N
U251 CNS = test system: U251 CNS
ACHN renal = test system: ACHN renal
OVCAR-5 ovarian = test system: OVCAR-5 ovarian
SNB-75 CNS = test system: SNB-75 CNS
HOP-62 NSCLC = test system: HOP-62 NSCLC
A498 renal = test system: A498 renal
OVCAR-3 ovarian = test system: OVCAR-3 ovarian
NCI-H460 lung = test system: NCI-H460 lung
NCI-H226 lung = test system: NCI-H226 lung
RPMI-8226 leukemia = test system: RPMI-8226 leukemia
EKVX NSCLC = test system: EKVX NSCLC
NCI-H23 lung = test system: NCI-H23 lung
HCT-15 colon = test system: HCT-15 colon
T-47D breast = test system: T-47D breast
SW-620 colon = test system: SW-620 colon
SK-MEL-28 melanoma = test system: SK-MEL-28 melanoma
UO-31 renal = test system: UO-31 renal
UACC-62 melanoma = test system: UACC-62 melanoma
DU-145 prostate = test system: DU-145 prostate
PC-3 prostate = test system: PC-3 prostate
HCT-116 colon = test system: HCT-116 colon
IGROV1 ovarian = test system: IGROV1 ovarian
786-0 renal = test system: 786-0 renal
SK-OV-3 ovarian = test system: SK-OV-3 ovarian
A549 NSCLC = test system: A549 NSCLC
SNB-19 CNS = test system: SNB-19 CNS
M14 melanoma = test system: M14 melanoma
SF-268 CNS = test system: SF-268 CNS
HS 578T breast = test system: HS 578T breast
NCI/ADR-RES ovarian = test system: NCI/ADR-RES ovarian
SN12C renal = test system: SN12C renal
MCF7 breast = test system: MCF7 breast
RXF 393 renal = test system: RXF 393 renal
HOP-92 NSCLC = test system: HOP-92 NSCLC
SK-MEL-5 melanoma = test system: SK-MEL-5 melanoma
HL-60(TB) leukemia = test system: HL-60(TB) leukemia
HCC-2998 colon = test system: HCC-2998 colon
BT-549 breast = test system: BT-549 breast
HT29 colon = test system: HT29 colon
MDA-MB-435 = test system: MDA-MB-435
UACC-257 melanoma = test system: UACC-257 melanoma
SR leukemia = test system: SR leukemia
CCRF-CEM leukemia = test system: CCRF-CEM leukemia
OVCAR-8 ovarian = test system: OVCAR-8 ovarian
COLO 205 colon = test system: COLO 205 colon
MALME-3M melanoma = test system: MALME-3M melanoma
KM12 colon = test system: KM12 colon
K-562 leukemia = test system: K-562 leukemia
SK-MEL-2 melanoma = test system: SK-MEL-2 melanoma
MDA-MB-231 breast = test system: MDA-MB-231 breast
LOX IMVI melanoma = test system: LOX IMVI melanoma
OVCAR-4 ovarian = test system: OVCAR-4 ovarian
CAKI-1 renal = test system: CAKI-1 renal
NCI-H522 lung = test system: NCI-H522 lung

COc1cc(COC(=O)NC(Cc2cccs2)C(=O)O)c([N+](=O)[O-])cc1OC (stereo not drawn)
TGI (TK-10 renal): > 100 µM
TGI (SF-539 CNS): > 100 µM
TGI (MOLT-4 leukemia): > 100 µM
TGI (SF-295 CNS): > 100 µM
TGI (MDA-N): > 100 µM
TGI (U251 CNS): > 100000 nM
TGI (ACHN renal): > 100 µM
TGI (OVCAR-5 ovarian): > 100 µM
TGI (SNB-75 CNS): > 100000 nM
TGI (HOP-62 NSCLC): > 100 µM
TGI (A498 renal): > 100 µM
TGI (OVCAR-3 ovarian): > 100000 nM
TGI (NCI-H460 lung): > 100 µM
TGI (NCI-H226 lung): > 100 µM
TGI (RPMI-8226 leukemia): > 100 µM
TGI (EKVX NSCLC): > 100 µM
TGI (NCI-H23 lung): > 100 µM
TGI (HCT-15 colon): > 100000 nM
TGI (T-47D breast): > 100 µM
TGI (SW-620 colon): > 100 µM
TGI (SK-MEL-28 melanoma): > 100 µM
TGI (UO-31 renal): > 100 µM
TGI (UACC-62 melanoma): > 100 µM
TGI (DU-145 prostate): > 100000 nM
TGI (PC-3 prostate): > 100000 nM
TGI (HCT-116 colon): > 100 µM
TGI (IGROV1 ovarian): > 100 µM
TGI (786-0 renal): > 100 µM
TGI (SK-OV-3 ovarian): > 100 µM
TGI (A549 NSCLC): > 100 µM
TGI (SNB-19 CNS): > 100 µM
TGI (M14 melanoma): > 100 µM
TGI (SF-268 CNS): > 100 µM
TGI (HS 578T breast): > 100 µM
TGI (NCI/ADR-RES ovarian): > 100 µM
TGI (SN12C renal): > 100 µM
TGI (MCF7 breast): > 100 µM
TGI (RXF 393 renal): > 100000 nM
TGI (HOP-92 NSCLC): > 100 µM
TGI (SK-MEL-5 melanoma): > 100 µM
TGI (HL-60(TB) leukemia): > 100 µM
TGI (HCC-2998 colon): > 100 µM
TGI (BT-549 breast): > 100 µM
TGI (HT29 colon): > 100 µM
TGI (MDA-MB-435): > 100 µM
TGI (UACC-257 melanoma): > 100 µM
TGI (SR leukemia): > 100 µM
TGI (CCRF-CEM leukemia): > 100 µM
TGI (OVCAR-8 ovarian): > 100 µM
TGI (COLO 205 colon): > 100 µM
TGI (MALME-3M melanoma): > 100 µM
TGI (KM12 colon): > 100000 nM
TGI (K-562 leukemia): > 100 µM

COc1ccc(N=C(SSC(=Nc2ccc(OC)cc2)c2ccc([N+](=O)[O-])o2)c2ccc([N+](=O)[O-])o2)cc1
TGI (TK-10 renal): 7.55 µM
TGI (SF-539 CNS): > 21.9 µM
TGI (MOLT-4 leukemia): > 31.3 µM
TGI (SF-295 CNS): 6.14 µM
TGI (SK-MEL-2 melanoma): 4.73 µM
TGI (MDA-N): 12.7 µM
TGI (MDA-MB-231 breast): 7.33 µM
TGI (LOX IMVI melanoma): 5.05 µM
TGI (U251 CNS): 1620 nM
TGI (ACHN renal): 4.1 µM
TGI (OVCAR-5 ovarian): 5.01 µM
TGI (SNB-75 CNS): 2900 nM
TGI (HOP-62 NSCLC): 6.41 µM
TGI (A498 renal): 25.8 µM
TGI (OVCAR-3 ovarian): 2600 nM
TGI (NCI-H460 lung): > 24.3 µM
TGI (OVCAR-4 ovarian): 2920 nM
TGI (NCI-H226 lung): 37.3 µM
TGI (RPMI-8226 leukemia): > 100 µM
TGI (EKVX NSCLC): 3.47 µM
TGI (NCI-H23 lung): 3.2 µM
TGI (HCT-15 colon): 2030 nM
TGI (T-47D breast): 4.2 µM
TGI (SK-MEL-28 melanoma): > 19.7 µM
TGI (UO-31 renal): 3.01 µM
TGI (UACC-62 melanoma): 3.16 µM
TGI (DU-145 prostate): 2920 nM
TGI (PC-3 prostate): 2940 nM
TGI (CAKI-1 renal): 5.87 µM
TGI (HCT-116 colon): 3.49 µM
TGI (IGROV1 ovarian): 4.2 µM
TGI (786-0 renal): 4.18 µM
TGI (SK-OV-3 ovarian): 11.1 µM
TGI (A549 NSCLC): > 100 µM
TGI (SNB-19 CNS): 3.26 µM
TGI (NCI-H522 lung): 953 nM
TGI (M14 melanoma): 4.98 µM
TGI (SF-268 CNS): 5.4 µM
TGI (HS 578T breast): 5.43 µM
TGI (SN12C renal): 4.87 µM
TGI (RXF 393 renal): 2920 nM
TGI (HOP-92 NSCLC): 6.7 µM
TGI (SK-MEL-5 melanoma): 19.5 µM
TGI (HL-60(TB) leukemia): 7.07 µM
TGI (HCC-2998 colon): 3.26 µM
TGI (BT-549 breast): 3.22 µM
TGI (HT29 colon): 5.53 µM
TGI (MDA-MB-435): 3.93 µM
TGI (UACC-257 melanoma): > 19.9 µM
TGI (SR leukemia): > 21.7 µM
TGI (CCRF-CEM leukemia): > 22.5 µM
TGI (OVCAR-8 ovarian): 7.71 µM
TGI (MALME-3M melanoma): 4.14 µM
TGI (KM12 colon): 2790 nM
TGI (K-562 leukemia): > 25.3 µM
